Data as given in patent publication US20080139386A1 (priority 2004, published 2008).
Like-named read-outs stand apart in the source and are kept apart here.

Tested on: Pyricularia oryzae
Format: in vivo
Conditions: rice seedlings cultivar Tai-Nong 67, protective, inoculated next day, assessed after six days

Question: What does the source list for O=C(Nc1ccccc1)N(Cc1ccc(Cl)cc1)C1CCCC1 [compound II, 1-(4-chlorobenzyl)-1-cyclopentyl-3-phenylurea]?
Answer: Efficacy in % of the untreated control (1 ppm active compound in the spray liquor): 0%; Efficacy in % of the untreated control (16 ppm active compound in the spray liquor): 0%

Question: Which “Efficacy in % of the untreated control” value (4 ppm active compound in the spray liquor) does the source give for CC1CCN(c2c(-c3c(F)cc(F)cc3F)c(Cl)nc3ncnn23)CC1 [compound I, 5-chloro-7-(4-methylpiperidin-1-yl)-6-(2,4,6-trifluorophenyl)-[1,2,4]triazolo[1,5-a]pyrimidine] here?
Answer: 31%
